Source: patent publication US9695155B2, “Herbicidal substituted pyrimidinyloxy benzene compounds” (E. I. DU PONT DE NEMOURS AND COMPANY, priority 2013, dated 2017)

How the values were obtained:
corn [1] = assay: Test C postemergence; type: in vivo, Zea mays
Source text: (§1) Seeds of plant species selected from blackgrass (Alopecurus myosuroides), Italian ryegrass (Lolium multiflorum), wheat, winter (winter wheat, Triticum aestivum), galium (catchweed bedstraw, Galium aparine), corn (Zea mays), large (Lg) crabgrass (Digitaria sanguinalis), giant foxtail (Setaria faberii), johnsongrass (Sorghum halepense), lambsquarters (Chenopodium album), morningglory (Ipomoea coccinea), yellow nutsedge (Cyperus esculentus), pigweed (Amaranthus retroflexus), ragweed (common ragweed, Ambrosia elatior), soybean (Glycine max), barnyardgrass (Echinochloa crus-galli), oilseed rape (Brassica napus), waterhemp (common waterhemp, Amaranthus rudis), kochia (Kochia scoparia), wild oat (Avena fatua), surinam grass (Brachiaria decumbens), foxtail, green (green foxtail, Setaria viridis), goosegrass (Eleusine indica), bromegrass, downy (downy bromegrass, Bromus tectorum), nightshade (eastern black nightshade, Solanum ptycanthum), cocklebur (common cocklebur, Xanthium strumarium), cupgrass, woolly (woolly cupgrass, Eriochloa villosa), bermudagrass (Cynodon dactylon), sunflower, (common oilseed sunflower, Helianthus annuus), Russian thistle (Salsola kali), and velvetleaf (Abutilon theophrasti) were planted into a blend of loam soil and sand and treated preemergence with test chemicals formulated in a non-phytotoxic solvent mixture which included a surfactant.
(§2) At the same time, plants selected from these crop and weed species and also barley, winter (winter barley, Hordeum vulgare), windgrass (Apera spica-venti), chickweed (common chickweed, Stellaria media), deadnettle (henbit deadnettle, Lamium amplexicaule), and canarygrass (littleseed canarygrass, Phalaris minor) were planted in pots containing Redi-Earth® planting medium (Scotts Company, 14111 Scottslawn Road, Marysville, Ohio 43041) comprising spaghnum peat moss, vermiculite, wetting agent and starter nutrients and treated with postemergence applications of test chemicals formulated in the same manner. Plants ranged in height from 2 to 18 cm (1- to 4-leaf stage) for postemergence treatments. Treated plants and controls were maintained in a greenhouse for 13 to 15 days, after which time all species were compared to controls and visually evaluated. Plant response ratings, summarized in Table C, are based on a scale of 0 to 100 where 0 is no effect and 100 is complete control. A dash (-) response means no test result.

lambsquarters = assay: Test C postemergence; type: in vivo, Chenopodium album
Source text: as §1, §2

corn [2] = assay: Test A postemergence; type: in vivo, Zea mays
How it was run: (§3)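 Compounds in non-phytotoxic solvent with surfactant applied as soil spray preemergence, or postemergence to plants 2-10 cm at one- to two-leaf stage, in loam/sand. After approximately 10 days in greenhouse, injury rated visually versus untreated controls, 0 (no effect) to 100 (complete control).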

rice = assay: Test B flooded paddy test; type: in vivo, Oryza sativa; conditions: Flood, 250 g ai/ha, 0 to 100 scale where 0 is no effect and 100 is complete control
How it was run: (§4)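 Scores from 0 (no effect) to 100 (complete control) are visual comparisons with controls, taken 13 to 15 days after compound was applied into floodwater 3 cm deep around 2-leaf plants.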

barnyardgrass [3] = assay: Test B flooded paddy test; type: in vivo, Echinochloa crus-galli; conditions: Flood, 250 g ai/ha, 0 to 100 scale where 0 is no effect and 100 is complete control
How it was run: as §4

galium = assay: Test C postemergence; type: in vivo, Galium aparine
Source text: as §1, §2

Heteranthera limosa = assay: Test B flooded paddy test; type: in vivo; conditions: Flood, 250 g ai/ha, 0 to 100 scale where 0 is no effect and 100 is complete control
How it was run: as §4

barnyardgrass [4] = assay: Test A postemergence; type: in vivo, Echinochloa crus-galli
How it was run: as §3

Italian ryegrass = assay: Test C postemergence; type: in vivo, Lolium multiflorum
Source text: as §1, §2

pigweed = assay: Test C postemergence; type: in vivo, Amaranthus retroflexus
Source text: as §1, §2

waterhemp = assay: Test C postemergence; type: in vivo, Amaranthus rudis; conditions: for Plant response rating (0 to 100), Waterhemp: postemergence; for Plant response rating, Waterhemp: Postemergence, scale 0 to 100 (0 no effect, 100 complete control)
Source text: as §1, §2

[5] = Postemergence, 31 g ai/ha, scale 0 to 100 (0 no effect, 100 complete control), 13 to 15 days
[6] = Postemergence, 62 g ai/ha, scale 0 to 100 (0 no effect, 100 complete control)
[7] = 125 g ai/ha, 0 to 100 scale where 0 is no effect and 100 is complete control
[8] = 500 g ai/ha, 0 to 100 scale, 0 no effect, 100 complete control

## Clc1cnn(-c2ccccc2Oc2ncc(Br)cn2)c1 [Compound 5, 5-bromo-2-[2-(4-chloro-1H-pyrazol-1-yl)phenoxy]pyrimidine]
Corn [1]; Zea mays, post-emergence, 125 g ai/ha, postemergence, read-out: Plant response rating (0 to 100), Corn
  plant injury at 125 g/ha: 60%
Corn [1]; Zea mays, post-emergence, 250 g ai/ha, postemergence, read-out: Plant response rating (0 to 100), Corn
  plant injury at 250 g/ha: 70%
Corn [1]; Zea mays, post-emergence, Postemergence, 31 g ai/ha, scale 0 to 100 (0 no effect, 100 complete control), 13 to 15 days
  Corn plant response rating (crop injury, 0 = no effect, 100 = complete kill) at 31 g/ha: 15%
Corn [1]; Zea mays, post-emergence, Postemergence, 62 g ai/ha, scale 0 to 100 (0 no effect, 100 complete control)
  Corn plant response rating (crop injury, 0 = no effect, 100 = complete kill) at 62 g/ha: 20%
lambsquarters; Chenopodium album, post-emergence, 125 g ai/ha, postemergence, read-out: Plant response rating (0 to 100), Lambsquarters
  pest or weed control at 125 g/ha: 98%
lambsquarters; Chenopodium album, post-emergence, 250 g ai/ha, postemergence, read-out: Plant response rating (0 to 100), Lambsquarters
  pest or weed control at 250 g/ha: 98%
lambsquarters; Chenopodium album, post-emergence, Postemergence, 31 g ai/ha, scale 0 to 100 (0 no effect, 100 complete control), 13 to 15 days, read-out: Plant response rating, Lambsquarters
  pest or weed control at 31 g/ha: 80%
lambsquarters; Chenopodium album, post-emergence, Postemergence, 62 g ai/ha, scale 0 to 100 (0 no effect, 100 complete control), read-out: Plant response rating, Lambsquarters
  pest or weed control at 62 g/ha: 95%
Corn [2]; Zea mays, post-emergence, 240 h, 125 g ai/ha, 0 to 100 scale where 0 is no effect and 100 is complete control
  Corn plant response rating (crop injury, 0 = no effect, 100 = complete kill) at 125 g/ha: 0%
Corn [2]; Zea mays, post-emergence, 240 h, 500 g ai/ha, 0 to 100 scale, 0 no effect, 100 complete control, read-out: Plant response rating Corn
  plant injury at 500 g/ha: 30%
rice; Oryza sativa, read-out: Plant response rating, Rice
  plant injury at 250 g/ha: 10%
Barnyardgrass [3]; Echinochloa crus-galli, read-out: Plant response rating, Barnyardgrass
  pest or weed control at 250 g/ha: 0%
galium; Galium, post-emergence, 125 g ai/ha, postemergence, read-out: Plant response rating (0 to 100), Galium
  pest or weed control at 125 g/ha: 80%
galium; Galium, post-emergence, 250 g ai/ha, postemergence, read-out: Plant response rating (0 to 100), Galium
  pest or weed control at 250 g/ha: 95%
galium; Galium, post-emergence, Postemergence, 31 g ai/ha, scale 0 to 100 (0 no effect, 100 complete control), 13 to 15 days, read-out: Plant response rating, Galium
  pest or weed control at 31 g/ha: 55%
galium; Galium, post-emergence, Postemergence, 62 g ai/ha, scale 0 to 100 (0 no effect, 100 complete control), read-out: Plant response rating, Galium
  pest or weed control at 62 g/ha: 70%
Heteranthera limosa; Heteranthera limosa, read-out: Plant response rating, Ducksalad
  pest or weed control at 250 g/ha: 50%
Barnyardgrass [4]; Echinochloa crus-galli, post-emergence, 240 h, 125 g ai/ha, 0 to 100 scale where 0 is no effect and 100 is complete control, read-out: Plant response rating, Barnyardgrass
  pest or weed control at 125 g/ha: 10%
Barnyardgrass [4]; Echinochloa crus-galli, post-emergence, 240 h, 500 g ai/ha, 0 to 100 scale, 0 no effect, 100 complete control, read-out: Plant response rating Barnyardgrass
  pest or weed control at 500 g/ha: 60%
Italian ryegrass; Lolium multiflorum, post-emergence, 125 g ai/ha, postemergence, read-out: Plant response rating (0 to 100), Ryegrass, Italian
  pest or weed control at 125 g/ha: 10%
Italian ryegrass; Lolium multiflorum, post-emergence, 250 g ai/ha, postemergence, read-out: Plant response rating (0 to 100), Ryegrass, Italian
  pest or weed control at 250 g/ha: 25%
Italian ryegrass; Lolium multiflorum, post-emergence, Postemergence, 31 g ai/ha, scale 0 to 100 (0 no effect, 100 complete control), 13 to 15 days, read-out: Plant response rating, Ryegrass, Italian
  pest or weed control at 31 g/ha: 0%
Italian ryegrass; Lolium multiflorum, post-emergence, Postemergence, 62 g ai/ha, scale 0 to 100 (0 no effect, 100 complete control), read-out: Plant response rating, Ryegrass, Italian
  pest or weed control at 62 g/ha: 5%
pigweed; Amaranthus retroflexus, post-emergence, 125 g ai/ha, postemergence, read-out: Plant response rating (0 to 100), Pigweed
  pest or weed control at 125 g/ha: 100%
pigweed; Amaranthus retroflexus, post-emergence, 250 g ai/ha, postemergence, read-out: Plant response rating (0 to 100), Pigweed
  pest or weed control at 250 g/ha: 100%
pigweed; Amaranthus retroflexus, post-emergence, Postemergence, 31 g ai/ha, scale 0 to 100 (0 no effect, 100 complete control), 13 to 15 days, read-out: Plant response rating, Pigweed
  pest or weed control at 31 g/ha: 98%
pigweed; Amaranthus retroflexus, post-emergence, Postemergence, 62 g ai/ha, scale 0 to 100 (0 no effect, 100 complete control), read-out: Plant response rating, Pigweed
  pest or weed control at 62 g/ha: 98%

## Fc1cnc(Oc2ccccc2-n2cc(C(F)(F)F)cn2)nc1 [Compound 47]
Corn [1]; 125 g ai/ha, postemergence
  Plant response rating (0 to 100), Corn: 5
Corn [1]; 250 g ai/ha, postemergence
  Plant response rating (0 to 100), Corn: 5
Corn [1]; [5]
  Plant response rating, Corn: 0
Corn [1]; [6]
  Plant response rating, Corn: 0
lambsquarters; 125 g ai/ha, postemergence
  Plant response rating (0 to 100), Lambsquarters: 60
lambsquarters; 250 g ai/ha, postemergence
  Plant response rating (0 to 100), Lambsquarters: 90
lambsquarters; [5]
  Plant response rating, Lambsquarters: 30
lambsquarters; [6]
  Plant response rating, Lambsquarters: 45
Corn [2]; [7]
  Plant response rating, Corn: 40
Corn [2]; [8]
  Plant response rating, Corn: 90
rice
  Plant response rating, Rice: 35
Barnyardgrass [3]
  Plant response rating, Barnyardgrass: 10
galium; 125 g ai/ha, postemergence
  Plant response rating (0 to 100), Galium: 55
galium; 250 g ai/ha, postemergence
  Plant response rating (0 to 100), Galium: 65
galium; [5]
  Plant response rating, Galium: 35
galium; [6]
  Plant response rating, Galium: 50
Heteranthera limosa
  Plant response rating, Ducksalad: 95
Barnyardgrass [4]; [7]
  Plant response rating, Barnyardgrass: 30
Barnyardgrass [4]; [8]
  Plant response rating, Barnyardgrass: 100
Italian ryegrass; 125 g ai/ha, postemergence
  Plant response rating (0 to 100), Ryegrass, Italian: 0
Italian ryegrass; 250 g ai/ha, postemergence
  Plant response rating (0 to 100), Ryegrass, Italian: 0
Italian ryegrass; [5]
  Plant response rating, Ryegrass, Italian: 0
Italian ryegrass; [6]
  Plant response rating, Ryegrass, Italian: 0
pigweed; 125 g ai/ha, postemergence
  Plant response rating (0 to 100), Pigweed: 65
pigweed; 250 g ai/ha, postemergence
  Plant response rating (0 to 100), Pigweed: 70
pigweed; [5]
  Plant response rating, Pigweed: 40
pigweed; [6]
  Plant response rating, Pigweed: 55
waterhemp; 125 g ai/ha
  Plant response rating (0 to 100), Waterhemp: 100
waterhemp; 250 g ai/ha
  Plant response rating (0 to 100), Waterhemp: 100
waterhemp; 31 g ai/ha, 13 to 15 days
  Plant response rating, Waterhemp: 100
waterhemp; 62 g ai/ha
  Plant response rating, Waterhemp: 100

## N#Cc1cccc(Oc2ncc(Br)cn2)c1-n1cc(Br)cn1 [Compound 57]
Corn [1]; 125 g ai/ha, postemergence
  Plant response rating (0 to 100), Corn: 20
Corn [1]; 250 g ai/ha, postemergence
  Plant response rating (0 to 100), Corn: 20
Corn [1]; [5]
  Plant response rating, Corn: 10
Corn [1]; [6]
  Plant response rating, Corn: 15
lambsquarters; 125 g ai/ha, postemergence
  Plant response rating (0 to 100), Lambsquarters: 70
lambsquarters; 250 g ai/ha, postemergence
  Plant response rating (0 to 100), Lambsquarters: 85
lambsquarters; [5]
  Plant response rating, Lambsquarters: 70
lambsquarters; [6]
  Plant response rating, Lambsquarters: 70
Corn [2]; [7]
  Plant response rating, Corn: 30
Corn [2]; [8]
  Plant response rating, Corn: 90
rice
  Plant response rating, Rice: 0
Barnyardgrass [3]
  Plant response rating, Barnyardgrass: 0
galium; 125 g ai/ha, postemergence
  Plant response rating (0 to 100), Galium: 70
galium; 250 g ai/ha, postemergence
  Plant response rating (0 to 100), Galium: 95
galium; [5]
  Plant response rating, Galium: 50
galium; [6]
  Plant response rating, Galium: 50
Heteranthera limosa
  Plant response rating, Ducksalad: 60
Barnyardgrass [4]; [7]
  Plant response rating, Barnyardgrass: 90
Barnyardgrass [4]; [8]
  Plant response rating, Barnyardgrass: 100
Italian ryegrass; 125 g ai/ha, postemergence
  Plant response rating (0 to 100), Ryegrass, Italian: 10
Italian ryegrass; 250 g ai/ha, postemergence
  Plant response rating (0 to 100), Ryegrass, Italian: 15
Italian ryegrass; [5]
  Plant response rating, Ryegrass, Italian: 0
Italian ryegrass; [6]
  Plant response rating, Ryegrass, Italian: 5
pigweed; 250 g ai/ha, postemergence
  Plant response rating (0 to 100), Pigweed: 95
pigweed; [5]
  Plant response rating, Pigweed: 65
pigweed; [6]
  Plant response rating, Pigweed: 85
waterhemp; 125 g ai/ha
  Plant response rating (0 to 100), Waterhemp: 80
waterhemp; 250 g ai/ha
  Plant response rating (0 to 100), Waterhemp: 90
waterhemp; 31 g ai/ha, 13 to 15 days
  Plant response rating, Waterhemp: 75
waterhemp; 62 g ai/ha
  Plant response rating, Waterhemp: 80
